Source: publication PMC9437101, “Curcumin-based-fluorescent probes targeting ALDH1A3 as a promising tool for glioblastoma precision surgery and early diagnosis” (Communications Biology, 2022)
Where “and” joins values, the source holds several entries; their conditions need not be identical. Equal entries are not always repeated.

Assays:
[1] = target: T1, ALDH1A2 (Homo sapiens, UniProt O94788); assay: LC-HRMS analysis of isoenzyme activity in presence of probe; assay type: biochemical; details: 1 h incubation, LC-HRMS
T1 construct: E. coli BL21 (DE3) were transformed with the full-length expression vector of each isoform; His-tag; made in house; host or cells: E. coli BL21 (DE3)
T1 sequence (O94788 1-518): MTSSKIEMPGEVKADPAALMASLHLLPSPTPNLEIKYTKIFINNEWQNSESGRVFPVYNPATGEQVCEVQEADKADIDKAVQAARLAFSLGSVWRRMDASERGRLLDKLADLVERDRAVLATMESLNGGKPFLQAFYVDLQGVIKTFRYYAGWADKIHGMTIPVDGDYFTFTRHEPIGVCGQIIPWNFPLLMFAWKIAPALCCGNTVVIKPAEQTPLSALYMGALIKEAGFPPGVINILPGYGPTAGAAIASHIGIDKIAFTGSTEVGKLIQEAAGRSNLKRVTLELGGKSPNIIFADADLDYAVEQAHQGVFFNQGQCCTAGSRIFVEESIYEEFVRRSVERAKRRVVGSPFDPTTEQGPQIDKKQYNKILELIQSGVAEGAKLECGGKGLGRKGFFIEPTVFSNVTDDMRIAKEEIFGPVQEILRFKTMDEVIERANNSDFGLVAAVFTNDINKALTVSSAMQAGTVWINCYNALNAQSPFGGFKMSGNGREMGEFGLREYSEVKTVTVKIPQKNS
Method: (§1) These analyses were carried out by using UPLC-HRMS procedure with Vanquish UPLC system coupled to a Thermo Scientific Q-Exactive Plus, operating in negative electrospray ionization mode. The chromatographic separation was carried out using a Phenomenex Synergi 4 µ Polar-RP 80 A (150 × 2 mm) equipped with a Phenomenex Polar-RP (4 mm × 2 mm) security guard column. The mobile phase consisted of A: acetonitrile 0.1% formic acid and B: 0.1% formic acid. We used a linear elution gradient, starting from 80% of A to 5% A in 3 min, 3 min at 5% A, an equilibration of 4 min for a total run time of 10.00 min, at 300 µl/min flow rate. The autosampler temperature was set at 15 °C, the injection volume was 5 µl and column was maintained at 40 °C. The heated electrospray ionization source was used, with a spray voltage of […], with a capillary temperature of 300 °C, a heater temperature of 350 °C, a sheat gas flow of 45 arbitrary units (AU), an auxiliary gas flow of 10 AU and a sweep gas flow of 0 AU. During the Parallel Reaction Monitoring acquisition in negative ion mode, the instrument operated at 17,500 resolution in presence of the inclusion list (m/z = 596.20384 and m/z = 612.19875 for Probe 10 and Probe 10-COOH respectively; m/z = 534.18819 and m/z = 506.156888 for Probe 11 and Probe 11-COOH respectively) with an automatic gain control target of 2 × 10^5 charges and a maximum injection time of 100 ms. Before injecting the samples, the blanks in the list were analyzed and every biological sample was analyzed in duplicate. The biological samples analyzed were as follow: (1) Enzymatic assay Buffer; (2) Enzymatic assay Buffer + NAD^+; (3) Enzymatic assay Buffer + Probe 10 or Probe 11; (4) Enzymatic assay Buffer + ALDH1A1; (5) Enzymatic assay Buffer + ALDH1A2; (6) Enzymatic assay Buffer + ALDH1A3; (7) Enzymatic assay Buffer + ALDH1A1 + Probe 10 or Probe 11; (8) Enzymatic assay Buffer + ALDH1A2 + Probe 10 or Probe 11; (9) Enzymatic assay Buffer + ALDH1A3 + Probe 10 or Probe 11. All samples were diluted 1:1 with ACN, then 1:100 in ACN-Water 1:1 prior the LC-HRMS analysis.

[2] = target: T2, ALDH1A3 (Homo sapiens, UniProt P47895); assay: as above; assay type: biochemical; details: for oxidation of probe to carboxylic derivative / substrate behaviour: 1 h incubation, LC-HRMS
T2 construct: E. coli BL21 (DE3) were transformed with the full-length expression vector of each isoform; His-tag; made in house; host or cells: E. coli BL21 (DE3)
T2 sequence (P47895 1-512): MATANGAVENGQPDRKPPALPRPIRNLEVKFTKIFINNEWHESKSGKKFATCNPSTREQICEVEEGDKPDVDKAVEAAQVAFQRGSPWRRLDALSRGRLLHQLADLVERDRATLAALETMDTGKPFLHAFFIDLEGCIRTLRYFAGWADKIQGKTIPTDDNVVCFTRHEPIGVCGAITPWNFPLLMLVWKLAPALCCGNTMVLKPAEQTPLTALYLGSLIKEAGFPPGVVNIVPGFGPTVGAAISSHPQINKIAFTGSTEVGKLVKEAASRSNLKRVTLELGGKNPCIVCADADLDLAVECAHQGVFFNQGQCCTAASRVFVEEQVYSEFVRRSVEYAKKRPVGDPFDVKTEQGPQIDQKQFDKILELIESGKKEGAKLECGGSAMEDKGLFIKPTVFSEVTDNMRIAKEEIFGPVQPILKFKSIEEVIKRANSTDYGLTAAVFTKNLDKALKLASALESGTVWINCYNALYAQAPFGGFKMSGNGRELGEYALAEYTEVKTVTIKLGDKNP
Method: as §1

[3] = target: T3, ALDH1A1 (Homo sapiens, UniProt P00352); assay: as above; assay type: biochemical; details: 1 h incubation, LC-HRMS
T3 construct: E. coli BL21 (DE3) were transformed with the full-length expression vector of each isoform; His-tag; made in house; host or cells: E. coli BL21 (DE3)
T3 sequence (P00352 1-501): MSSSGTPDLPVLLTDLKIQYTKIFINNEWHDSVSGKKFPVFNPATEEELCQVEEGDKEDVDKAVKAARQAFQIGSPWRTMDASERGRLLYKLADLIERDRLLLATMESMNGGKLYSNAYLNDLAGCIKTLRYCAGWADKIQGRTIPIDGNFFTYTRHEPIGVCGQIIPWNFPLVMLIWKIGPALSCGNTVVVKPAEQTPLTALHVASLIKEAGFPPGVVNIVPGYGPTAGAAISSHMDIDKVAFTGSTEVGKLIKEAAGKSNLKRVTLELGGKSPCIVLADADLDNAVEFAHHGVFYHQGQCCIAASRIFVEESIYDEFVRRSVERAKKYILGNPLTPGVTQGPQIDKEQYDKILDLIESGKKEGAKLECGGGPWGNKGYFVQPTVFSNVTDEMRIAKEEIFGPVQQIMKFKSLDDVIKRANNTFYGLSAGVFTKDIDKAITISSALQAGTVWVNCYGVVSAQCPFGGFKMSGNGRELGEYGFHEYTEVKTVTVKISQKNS
Method: as §1

[4] = system: GL261 murine glioma cells; assay: Imaging flow cytometry of living GL261 cells incubated with probe; assay type: cell-based; details: 1 h incubation
Method: GL261 cells were incubated, with probe 10 or 11, for 1 h and after three rinses in PBS, cells were detached by trypsin treatment and visualized without fixation through a rMarkII flow cytometer (Amnis, Luminex Corporation, Austin, TX, USA) as previously described. Data were collected using Inspire software (Amnis, version 2.0) with the following parameters: 10,000 images per sample, 488 nm laser (25 and 100 mW) to excite the probes, 785 nm laser used to provide a side scatter signal and measurement of SpeedBeads (Amnis, Luminex Corporation, Austin, TX, USA), 830 nm laser used for internal bead calibration of core flow speed and focus, ×60 objective, in low-speed flow. Data were further analyzed by Ideas software (Amnis, version 6.1).

| Structure (SMILES) | oxidation of probe to carboxylic derivative / substrate behaviour [1] | oxidation of probe to carboxylic derivative / substrate behaviour [2] | AREA TIC of Probe 10 ([2]; ALDH1A3, 1 h) | oxidation of probe to carboxylic derivative / substrate behaviour [3] | entry into and labelling of GL261 cells in vitro [4] |
| --- | --- | --- | --- | --- | --- |
| COc1cc(/C=C/C(O)=C/C(=O)/C=C/c2ccc(OCc3cn(CCOc4ccc(C=O)cc4)nn3)c(OC)c2)ccc1O [Probe 10] | in part | no oxidation could be detected | 17952906 and 17991269 and 13247597 and 14014206 | fully metabolized | able to enter and label the murine glioblastoma cells |
| CCOC(=O)Cn1cc(COc2ccc(/C=C/C(=O)/C=C(O)/C=C/c3ccc(O)c(OC)c3)cc2OC)nn1 [Probe 11] | has not been shown to be a substrate | has not been shown to be a substrate |  | has not been shown to be a substrate | able to enter and label the murine glioblastoma cells |
